{"source": "patent US20220202912A1", "about": "“Polypeptides in Preparation of Drugs for Treatment or Prevention of Rheumatoid Arthritis” (priority 2011, published 2022)", "tested_on": "CIA transgenic TNF-luc mice", "experiment": "collagen type II-induced arthritis in transgenic TNF-luc mice (swelling, scores, weight)", "assay_type": "in vivo, BALB/c transgenic TNF-luc mice", "parameters": "key to joint index score / arthritis index score: 0–4 per paw, four paws summed, max 16", "details": "Adalimumab 8 mg/kg, mPEG-SC20k-HM-3 20 mg/kg; for right ankle swelling changes: CIA TNF-luc mice; for clinical score (Table 32, kg) / arthritis index score / clinical score: CIA chronic model", "experimental": "8 animals are randomly divided into 4 groups (n=2), a normal group, a model group, a positive drug group and a test group. On day 0, for the primary immunization, mice are hypodermically injected with 50 μL collagen emulsifier (containing CII 100 μg/ mouse) at the tail root of mice for sensitization. On day 0, initial ankle widths, initial foot palm widths and initial toe thicknesses of left and right feet of mice in each group are measured separately.\nAfter day 21, the same dosage of emulsifier is used for second immunization at the tail root. After the symptoms such as redness and swelling of joints appear on the four toes of mice, continuous administration is performed for 15 days. The normal group and the model group are separately hypodermically injected with 0.9% normal saline (0.2 mL/20 g of body weight), once every 2 days, 7 times in total. The positive drug Adalimumab group is hypodermically injected with Adalimumab (8 mg/kg of body weight), once every 15 days, once in total. The test treatment group is hypodermically injected with mPEG-SC20k-HM-3 (20 mg/kg of body weight), once every 2 days, 7 times in total.\nEvery 2 days, the thickness of the ankle, the width of the foot palm and the thickness of the toes of each group of mice are measured with a vernier caliper.\nSwelling degree of left ankle (cm)=swelling thickness of left ankle on day n of the experiment−measured initial thickness of left ankle.\nSwelling degree of right ankle (cm)=swelling thickness of right ankle on day n of the experiment−measured initial thickness of right ankle.\nThe joints of the mouse paw are observed with naked eyes, and the joints are scored every 2 days from day 30. Scoring is performed in terms of level 0 to level 4, 5 levels in total. 0=no erythema or swelling; 1=slight erythema or swelling, with erythema or swelling on one of the front/hind toe joints; 2=erythema or swelling on more than one toe; 3=swelling of paw beneath the ankle or wrist joint; 4=swelling of all paws including the ankle joint. Four paws of the mice are scored separately, and the highest score is 16 points.\nAfter the secondary inflammation appears, systemic scoring is performed every 2 days, and the scoring standards are as follows:\nHind foot: no swelling=0 point, swelling of one hind foot=1 point, swelling of two hind feet=2 points.\nFront foot: no swelling=0, swelling of one front foot=1 point, swelling of two front feet=2 points.\nEars: no redness symptoms and nodules=0 point, redness symptoms or nodules of one ear=1 point, red symptoms and nodules of two ears=2 points.\nNose: no swelling=0 point, obvious swelling=1 point.\nTail: no nodule=0 point, nodules=1 point; the highest score is 8 points."}
{"substance": "Adalimumab [reference compound]", "values": [{"measurement": "left ankle swelling", "setting": "0 d", "value": "0.000 ± 0.000", "unit": "cm"}, {"measurement": "right ankle swelling changes", "setting": "0 d, mean ± SD", "value": "0.000 ± 0.000", "unit": "cm"}, {"measurement": "clinical score (Table 32, kg)", "setting": "0 d, mean ± SD", "value": "0.000 ± 0.000"}, {"measurement": "left ankle swelling", "setting": "12 d", "value": "0.006 ± 0.050", "unit": "cm"}, {"measurement": "right ankle swelling changes", "setting": "12 d, mean ± SD", "value": "0.010 ± 0.014", "unit": "cm"}, {"measurement": "clinical score (Table 32, kg)", "setting": "12 d, mean ± SD", "value": "1.050 ± 0.778"}, {"measurement": "left ankle swelling", "setting": "15 d", "value": "0.011 ± 0.072", "unit": "cm"}, {"measurement": "right ankle swelling changes", "setting": "15 d, mean ± SD", "value": "0.000 ± 0.028", "unit": "cm"}, {"measurement": "clinical score (Table 32, kg)", "setting": "15 d, mean ± SD", "value": "0.940 ± 1.047"}, {"measurement": "left ankle swelling", "setting": "18 d", "value": "0.021 ± 0.058", "unit": "cm"}, {"measurement": "right ankle swelling changes", "setting": "18 d, mean ± SD", "value": "0.012 ± 0.011", "unit": "cm"}, {"measurement": "clinical score (Table 32, kg)", "setting": "18 d, mean ± SD", "value": "0.455 ± 0.247"}, {"measurement": "left ankle swelling", "setting": "21 d", "value": "0.001 ± 0.041", "unit": "cm"}, {"measurement": "right ankle swelling changes", "setting": "21 d, mean ± SD", "value": "0.007 ± 0.010", "unit": "cm"}, {"measurement": "clinical score (Table 32, kg)", "setting": "21 d, mean ± SD", "value": "0.230 ± 0.523"}, {"measurement": "left ankle swelling", "setting": "24 d", "value": "0.016 ± 0.048", "unit": "cm"}, {"measurement": "right ankle swelling changes", "setting": "24 d, mean ± SD", "value": "0.009 ± 0.007", "unit": "cm"}, {"measurement": "clinical score (Table 32, kg)", "setting": "24 d, mean ± SD", "value": "0.550 ± 0.212"}, {"measurement": "left ankle swelling", "setting": "27 d", "value": "0.007 ± 0.049", "unit": "cm"}, {"measurement": "right ankle swelling changes", "setting": "27 d, mean ± SD", "value": "0.012 ± 0.017", "unit": "cm"}, {"measurement": "clinical score (Table 32, kg)", "setting": "27 d, mean", "value": 1.295}, {"measurement": "left ankle swelling", "setting": "30 d", "value": 0.012, "unit": "cm"}, {"measurement": "right ankle swelling changes", "setting": "30 d, mean ± SD", "value": "0.008 ± 0.008", "unit": "cm"}, {"measurement": "clinical score (Table 32, kg)", "setting": "30 d, mean", "value": 0.975}, {"measurement": "arthritis index score", "setting": "30 d, mean ± SD", "value": "5.00 ± 2.83"}, {"measurement": "clinical score", "setting": "30 d, mean ± SD", "value": "5.00 ± 1.41"}, {"measurement": "left ankle swelling", "setting": "33 d", "value": "0.011 ± 0.041", "unit": "cm"}, {"measurement": "right ankle swelling changes", "setting": "33 d, mean ± SD", "value": "0.011 ± 0.016", "unit": "cm"}, {"measurement": "arthritis index score", "setting": "33 d, mean ± SD", "value": "8.00 ± 0.00"}, {"measurement": "clinical score", "setting": "33 d, mean ± SD", "value": "5.00 ± 0.00"}, {"measurement": "clinical score (Table 32, kg)", "setting": "33 d, mean ± SD", "value": "1.295 ± 0.177"}, {"measurement": "left ankle swelling", "setting": "36 d", "value": "0.012 ± 0.042", "unit": "cm"}, {"measurement": "right ankle swelling changes", "setting": "36 d, mean ± SD", "value": "0.017 ± 0.007", "unit": "cm"}, {"measurement": "arthritis index score", "setting": "36 d, mean ± SD", "value": "8.50 ± 0.71"}, {"measurement": "clinical score", "setting": "36 d, mean ± SD", "value": "5.00 ± 0.00"}, {"measurement": "clinical score (Table 32, kg)", "setting": "36 d, mean ± SD", "value": "2.200 ± 0.707"}, {"measurement": "left ankle swelling", "setting": "39 d", "value": "0.002 ± 0.031", "unit": "cm"}, {"measurement": "right ankle swelling changes", "setting": "39 d, mean ± SD", "value": "0.007 ± 0.010", "unit": "cm"}, {"measurement": "arthritis index score", "setting": "39 d, mean ± SD", "value": "6.50 ± 0.71"}, {"measurement": "clinical score", "setting": "39 d, mean ± SD", "value": "5.00 ± 0.00"}, {"measurement": "clinical score (Table 32, kg)", "setting": "39 d, mean ± SD", "value": "2.187 ± 0.443"}, {"measurement": "left ankle swelling", "setting": "42 d", "value": "0.003 ± 0.052", "unit": "cm"}, {"measurement": "right ankle swelling changes", "setting": "42 d, mean ± SD", "value": "0.012 ± 0.017", "unit": "cm"}, {"measurement": "arthritis index score", "setting": "42 d, mean ± SD", "value": "5.50 ± 0.71"}, {"measurement": "clinical score", "setting": "42 d, mean ± SD", "value": "5.00 ± 0.00"}, {"measurement": "clinical score (Table 32, kg)", "setting": "42 d, mean ± SD", "value": "2.655 ± 1.082"}, {"measurement": "left ankle swelling", "setting": "45 d", "value": "0.006 ± 0.051", "unit": "cm"}, {"measurement": "right ankle swelling changes", "setting": "45 d, mean ± SD", "value": "0.005 ± 0.021", "unit": "cm"}, {"measurement": "arthritis index score", "setting": "45 d, mean ± SD", "value": "5.00 ± 0.00"}, {"measurement": "clinical score", "setting": "45 d, mean ± SD", "value": "4.00 ± 0.00"}, {"measurement": "clinical score (Table 32, kg)", "setting": "45 d, mean ± SD", "value": "3.085 ± 1.478"}, {"measurement": "left ankle swelling", "setting": "48 d", "value": "0.007 ± 0.047", "unit": "cm"}, {"measurement": "right ankle swelling changes", "setting": "48 d, mean ± SD", "value": "0.006 ± 0.006", "unit": "cm"}, {"measurement": "clinical score (Table 32, kg)", "setting": "48 d, mean", "value": 3.415}, {"measurement": "arthritis index score", "setting": "48 d, mean ± SD", "value": "5.00 ± 1.41"}, {"measurement": "clinical score", "setting": "48 d, mean ± SD", "value": "5.00 ± 0.00"}, {"measurement": "left ankle swelling", "setting": "51 d", "value": 0.001, "unit": "cm"}, {"measurement": "right ankle swelling changes", "setting": "51 d, mean ± SD", "value": "0.004 ± 0.006", "unit": "cm"}, {"measurement": "clinical score (Table 32, kg)", "setting": "51 d, mean", "value": 3.835}, {"measurement": "arthritis index score", "setting": "51 d, mean ± SD", "value": "4.50 ± 0.71"}, {"measurement": "clinical score", "setting": "51 d, mean ± SD", "value": "4.50 ± 0.71"}]}
